Data published in patent publication US8884027B2, “Melampomagnolide B derivatives as antileukemic and cytotoxic agents” (University of Rochester, priority 2010, dated 2014).
“Also recorded” adds a separate entry of the source.

Key:
[1] = rats and dogs, cited from earlier work
[2] = cited from earlier work
[3] = cited from earlier work; remark: listed apart in the source
[4] = system: primary leukemia cells; assay: Cell viability assay (Annexin V/7-AAD flow cytometry); type: cell-based, human; conditions: for concentration achieving efficient induction of cell death: 24 h exposure, FIG. 3B; for anti-leukemia activity compared to PTL (in words): primary AML specimens, FIG. 2
Protocol: (§1) Primary leukemia cells were treated with varying concentrations of 1, 3 or 4 for six hours, followed by lysis and analysis by immunoblot. Inhibition of NF-κB activity was assessed by measuring phosphorylation of the NF-κB p65 subunit at Ser-536. […] To further evaluate the cytoxicity of 3 and 4, cell viability was measured following 24 h exposure to each compound. […] To achieve a similar degree of cell death with 4, treatment at 20-30 μM was required, in good agreement with the NF-κB phosphorylation analysis shown in FIG. 3A. Thus, while 3 and 4 retain the biological properties of 1, the activity of 4 is reduced approximately 2-fold. The minor loss in activity might be attributed to steric hindrance resulting from the addition of the bulky biotin moiety.
Cells treated with different concentrations of 1, 3 or 4 were washed with cold PBS and resuspended in 200 μL of Annexin binding buffer (10 mM HEPES/NaOH pH 7.4; 140 mM NaCl; 2.5 mM CaCl2). Annexin-V and 7-amino-actinomycin (7-AAD) were added and the tubes were incubated at ambient temperature in the dark for 15 mins. Cells were then diluted with 200 μL of Annexin binding buffer and analyzed immediately by flow cytometry. Viable cells were scored as Annexin V negative/7-AAD negative. Percent viability data provided are normalized to untreated control specimens.

[5] = system: NF-κB p65 subunit at Ser-536; assay: Inhibition of NF-κB activity: immunoblot of phosphorylated p65 in primary leukemia cells; type: cell-based, human; conditions: primary leukemia cells treated six hours, FIG. 3A
Protocol: as §1
Cell lysates or pull-down products were diluted in 5×SDS-PAGE sample buffer (10% w/v SDS, 10 mM DDT, 20% glycerol, 0.2M Tris-HCl, pH 6.8, 0.05% w/v bromophenol blue), and run on 8-10% SDSPAGE gels. Protein gels were then transferred to PVDF membrane and blocked with 5% milk in 0.1% TBST (20 mM Tris-HCl pH 7.5, 137 mM NaCl, 0.1% Tween 20), followed by incubation with antibodies against p-p65(ser 536) (Cell Signaling), IKK-β (Cell Signaling), p65 (Santa Cruz), β-actin (Sigma), or SA-HRP probe (Thermo).

[6] = Water solubility; type: physicochemical
Protocol: Detailed SAR studies of PTL were performed to better understand the basic chemistry required to mediate anti-leukemia activity. […] In biological systems, the consequences of this reactivity are most prevalent for free thiols and cysteine residues. […] A series of PTL analogs was previously prepared with the goal of creating a more therapeutically useful derivative (Neelakantan et al., 2009). […] In addition, DMAPT retains virtually identical anti-leukemia properties as PTL, including the ability to selectively target LSCs. […] Based on these findings, DMAPT has advanced to phase 1 clinical trials, and is currently being evaluated in patients with advanced hematologic malignancies. DMAPT and certain PTL analogs are disclosed in U.S. Pat. Nos. 7,312,242 and 7,678,904, each of which is incorporated herein by reference.
The predicted poor oral bioavailability likely results from low aqueous solubility, since this causes a low dissolution-rate, which is often the rate-limit step during oral drug absorption. Fleisher et al., Improved oral drug delivery: solubility limitations overcome by the use of prodrugs. Adv Drug Deliv Rev, 19:115-130, 1996; Taylor, Improved passive oral drug delivery via prodrugs. Adv Drug Deliv Rev, 19:131-148, 1996. Furthermore, low water solubility can itself be a source of toxicity, due to precipitation of the drug, causing crystalluria. […]

[7] = target: T1, NF-kB p65 subunit (Homo sapiens, UniProt Q04206); assay: Streptavidin beads pull-down assay with immunoblot; type: binding; conditions: 2 h pretreatment before 4; FIG. 5 lane 5
T1 construct: endogenous in cells; host or cells: primary leukemia (AML) cells
T1 sequence (Q04206 whole entry): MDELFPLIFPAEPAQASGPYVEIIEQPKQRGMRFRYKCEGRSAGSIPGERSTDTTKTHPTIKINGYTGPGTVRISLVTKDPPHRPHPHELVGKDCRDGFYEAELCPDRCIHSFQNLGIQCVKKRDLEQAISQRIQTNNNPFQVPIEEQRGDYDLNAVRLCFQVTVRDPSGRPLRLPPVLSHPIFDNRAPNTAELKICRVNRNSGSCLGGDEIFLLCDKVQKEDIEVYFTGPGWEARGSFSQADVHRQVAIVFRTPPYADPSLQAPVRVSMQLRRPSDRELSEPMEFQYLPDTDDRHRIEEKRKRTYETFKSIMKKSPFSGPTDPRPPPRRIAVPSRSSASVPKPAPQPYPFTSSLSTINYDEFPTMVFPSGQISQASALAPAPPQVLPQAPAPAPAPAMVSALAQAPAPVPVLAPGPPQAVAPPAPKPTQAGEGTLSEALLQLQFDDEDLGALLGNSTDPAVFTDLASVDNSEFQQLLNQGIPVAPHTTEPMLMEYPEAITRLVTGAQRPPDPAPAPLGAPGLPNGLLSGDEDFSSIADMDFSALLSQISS
Protocol: Primary human cells were treated with 20 uM 4 for 6 h, followed by lysis and immunoblot analysis using a streptavidin probe. […] Therefore, we tested whether 4 would also bind this protein. […] Cells were then lysed and immuno-precipitated by streptavidin beads. Pulldown products were analyzed by immunoblot to identify specific proteins.
Treated cells were washed three times in cold PBS and lysed in Buffer F (10 mM Tris-HCl pH 7.5, 50 mM NaCl, 30 mM Sodium pyrophosphate, 50 mM NaF, 5 μM ZnCl2, 1% Triton X-100) with freshly added proteinase inhibitors (1 mM PMSF, 1×PIC, 0.1 mM Na3OV4). Lysates were cleared by 10 mins of 12,000 rpm spinning at 4° C. and the supernatant was incubated with SA beads for 2 hours on an end-to-end rotor at 4° C. Beads were then washed sequentially with 1×PBS, high salt wash buffer (500 mM NaCl in 0.1 M pH 5.0 NaOAc), low pH wash buffer (0.1 M pH 2.8 glycine-HCl), and one last time in 1×PBS. After the wash steps, the SA beads were boiled for 10 mins in 2×SDS-PAGE sample buffer to elute down all pull-down products.
Cell lysates or pull-down products were diluted in 5×SDS-PAGE sample buffer (10% w/v SDS, 10 mM DDT, 20% glycerol, 0.2M Tris-HCl, pH 6.8, 0.05% w/v bromophenol blue), and run on 8-10% SDSPAGE gels. […]

[8] = target: T2, IKK-β (Homo sapiens, UniProt O14920); assay: Streptavidin beads pull-down assay with immunoblot; type: binding
T2 construct: endogenous in cells; host or cells: primary leukemia (AML) cells
T2 sequence (O14920 1-756): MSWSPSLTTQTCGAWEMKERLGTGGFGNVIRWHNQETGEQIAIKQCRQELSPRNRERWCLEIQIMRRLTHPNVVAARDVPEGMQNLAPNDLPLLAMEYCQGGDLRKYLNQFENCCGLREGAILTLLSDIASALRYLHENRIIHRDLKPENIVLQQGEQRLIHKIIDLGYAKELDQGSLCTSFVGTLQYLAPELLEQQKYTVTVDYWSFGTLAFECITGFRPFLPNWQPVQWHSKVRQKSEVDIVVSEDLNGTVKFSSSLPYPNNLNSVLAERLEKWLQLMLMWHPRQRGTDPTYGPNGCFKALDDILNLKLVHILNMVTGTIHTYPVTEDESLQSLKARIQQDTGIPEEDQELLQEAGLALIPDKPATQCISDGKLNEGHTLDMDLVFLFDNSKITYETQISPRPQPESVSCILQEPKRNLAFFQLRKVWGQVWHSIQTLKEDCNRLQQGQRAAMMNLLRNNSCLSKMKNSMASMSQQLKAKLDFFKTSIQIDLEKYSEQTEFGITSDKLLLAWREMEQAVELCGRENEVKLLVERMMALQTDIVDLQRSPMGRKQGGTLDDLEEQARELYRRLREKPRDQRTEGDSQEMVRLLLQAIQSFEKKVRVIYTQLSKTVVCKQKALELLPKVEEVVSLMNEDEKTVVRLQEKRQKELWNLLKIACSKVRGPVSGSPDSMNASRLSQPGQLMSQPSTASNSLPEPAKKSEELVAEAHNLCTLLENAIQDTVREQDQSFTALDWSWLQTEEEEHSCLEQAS
Protocol: Subsequent studies employed 4 as a reagent to identify potential leukemic proteins modified by MMB. Primary human cells were treated with 20 uM 4 for 6 h, followed by lysis and immunoblot analysis using a streptavidin probe. […] Thus, while the chemistry of 4 should be essentially the same in any cell type, there must be intrinsic differences between normal and leukemic cells that lead to the interaction with unique targets. We propose that this differential binding contributes to the leukemia-specific cell death previously described for 1. To further validate the utility of 4 for analysis of protein targets, we performed biochemical pulldown studies. […] Kwok et al. Chem. Bio., 2001, 8, 759. Therefore, we tested whether 4 would also bind this protein. In FIG. 5, primary leukemia cells were pretreated for 2 h with 1 (lanes 2, 5) or biotin control (b.c.) (lanes 3, 6), prior to a 4 h incubation with 4. Cells were then lysed and immuno-precipitated by streptavidin beads. Pulldown products were analyzed by immunoblot to identify specific proteins. […] Kwok et al., Chem. Bio., 2001, 8, 759; Hehner et al., J. Immunol. 1999, 163, 5617.
Treated cells were washed three times in cold PBS and lysed in Buffer F (10 mM Tris-HCl pH 7.5, 50 mM NaCl, 30 mM Sodium pyrophosphate, 50 mM NaF, 5 μM ZnCl2, 1% Triton X-100) with freshly added proteinase inhibitors (1 mM PMSF, 1×PIC, 0.1 mM Na3OV4). […]

[9] = system: glutathione; assay: Metabolomic studies of glutathione; type: cell-based
Description: For example, both thioredoxin and glutathione-S-transferase are targets of MMB. […] Furthermore, MMB also directly binds the major components of the HSP family (HSP60, 70, and 90). […] If true, then MMB could also impair the function of one or more HSPs. Taken together with the genomic data, these findings indicate a unique mechanism of action, where agents of this class act by inducing multiple stress response mechanisms and simultaneously impairing those very same mechanisms from functioning properly.

C/C1=C\CC[C@@]2(C)O[C@@H]2[C@H]2OC(=O)[C@H](CN(C)C)[C@@H]2CC1 [DMAPT, dimethylaminoparthenolide]
oral bioavailability [1]: 70%
tolerability ([1]; doses resulting in serum concentrations of up to 10-fold excess of the biologically active concentration): well tolerated
in vivo half-life [2]: approximately two
water solubility relative to PTL ([3]; formulated as a fumarate salt): ~1000 fold

C=C1C(=O)O[C@@H]2[C@H]3O[C@]3(C)CC/C=C(\CO)CC[C@@H]12 [MMB, Melampomagnolide B]
concentration achieving efficient induction of cell death [4]: 7.5 µM
anti-leukemia activity compared to PTL (in words) [4]: indistinguishable from PTL; also recorded: identical anti-leukemia activity compared to PTL
anti-leukemia activity compared to PTL (in words) ([4]; listed as 3): potency and selectivity similar to 1
concentration at which a significant loss of phosphorylation of NF-κB p65 is observed [5]: 7.5 µM
solubility in aqueous media (in words) [6]: sparingly soluble

C=C1C(=O)O[C@H]2[C@H]1CC/C(C)=C/CC[C@@]1(C)O[C@@H]21 [PTL, parthenolide]
effect of preincubation on binding of p65 to 4 [7]: potently reduced binding
water solubility (in words) [3]: relatively water-insoluble
effect of preincubation on binding of IKK-β to 4 ([8]; 2 h pretreatment before 4, FIG. 5 lane 5): potently reduced binding
reduction of glutathione [9]: 11.2 fold

C=C1C(=O)O[C@@H]2[C@H]3O[C@]3(C)CC/C=C(\COC(=O)CCCCCCCCCCCNC(=O)CCCC[C@@H]3SC[C@@H]4NC(=O)N[C@@H]43)CC[C@@H]12 [Prodrug 4, 14-[N-(Biotinyl)-12-aminododecanoxy]melampomagnolide B]
concentration achieving efficient induction of cell death [4]: 20 to 30 µM
reduction of activity relative to 1 ([4]; from viability and NF-κB phosphorylation analysis): approximately 2 fold
concentration at which a significant loss of phosphorylation of NF-κB p65 is observed [5]: 20 µM
binding of IKK-β in pull-down ([8]; primary leukemia cells, 4 h incubation with 4, FIG. 5): one product identified was IKK-β
